Among the test systems are COLO 205 colon; SK-OV-3 ovarian; HCC-2998 colon; U251 CNS; RXF 393 renal; NCI-H460 lung; 786-0 renal; RPMI-8226 leukemia; MDA-MB-231 breast; DU-145 prostate; BT-549 breast.
Holding throughout (test): DTP human tumour cell line panel, 48 h

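Five compound concentrations were applied to cells in 96-well plates for 48 hours; endpoints were derived by simple linear interpolation of the resulting dose-response curve. Definition used: TGI = concentration required for complete inhibition of growth.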 Where a SMILES comes first, the peptide text is derived from it. The star is where a group is joined. Boc = CC(C)(C)OC(=O)*; Bn = c1ccc(C*)cc1 A value given as a limit tells only on which side of the number the result lay.

`CC(=O)OC1/C=C(\C)C(OC(C)=O)C/C=C(/C)CCC2C(/C=C/C1=O)C2(C)C` (configuration not stated): the TGI in the assay on COLO 205 colon, in the assay on SK-OV-3 ovarian, in the assay on HCC-2998 colon, with U251 CNS, in the assay with RXF 393 renal and in the assay on NCI-H460 lung was over 100 µM throughout.

Consider `COc1cc(C2C3C=CC=C4CC=CC(=C43)C3CCC(=O)N32)cc(OC)c1OC` (configuration not stated), for which the TGI with 786-0 renal, in the assay on SK-OV-3 ovarian, in the assay with RPMI-8226 leukemia, in the assay on U251 CNS, with MDA-MB-231 breast and with DU-145 prostate was over 100 µM in each case. Also, the TGI in the assay on NCI-H460 lung is over 100 µM.

In the case of `Cn1c(=O)c2c(ncn2CCNC(CO)C(O)c2ccc([N+](=O)[O-])cc2)n(C)c1=O` (configuration not stated), the TGI in the assay on COLO 205 colon, in the assay with 786-0 renal, with SK-OV-3 ovarian, in the assay on RPMI-8226 leukemia, in the assay with BT-549 breast and in the assay with U251 CNS was over 100 µM in each case. Further, the TGI in the assay with MDA-MB-231 breast and with NCI-H460 lung was over 100 µM each time.

In the case of `O=C(O)CCCc1nc2c(n1Cc1ccccc1)C(=O)c1ccccc1C2=O`, the TGI with COLO 205 colon was over 100 µM; in the assay on 786-0 renal, over 100 µM; in the assay on SK-OV-3 ovarian, over 100 µM; in the assay with RPMI-8226 leukemia, 68.8 µM; with HCC-2998 colon it was over 100 µM; with U251 CNS, over 100 µM. In addition, the TGI in the assay with MDA-MB-231 breast, in the assay with DU-145 prostate and in the assay on NCI-H460 lung was over 100 µM each time.

For the compound `O=c1sc2ccccc2n1CC1CS1` (configuration not stated), the TGI in the assay with COLO 205 colon, in the assay on SK-OV-3 ovarian, in the assay with RPMI-8226 leukemia, with HCC-2998 colon, with RXF 393 renal and with NCI-H460 lung was over 100 µM throughout.

For `CCCC(=O)NC(NC1CCCCC1)(C(=O)OCC)C(F)(F)F` (configuration not stated), the TGI with 786-0 renal, in the assay on SK-OV-3 ovarian, with RPMI-8226 leukemia, with HCC-2998 colon, in the assay with U251 CNS and with DU-145 prostate was over 100 µM in each case. Also, the TGI with RXF 393 renal and with NCI-H460 lung was over 100 µM throughout.

Regarding `COc1cc2c(cc1OC)C(CC1=C(c3ccccc3)CN3CCc4cc(OC)c(OC)cc4C3C1)NCC2` (configuration not stated), the TGI in the assay on COLO 205 colon turned out to be 31.4 µM; with 786-0 renal, 29.5 µM; in the assay on SK-OV-3 ovarian, 43.9 µM; in the assay with RPMI-8226 leukemia, 28.8 µM; with HCC-2998 colon it was 22.7 µM; in the assay on U251 CNS, 29.8 µM. In addition, the total growth inhibition concentration (TGI) with RXF 393 renal came to 17.6 µM; in the assay on NCI-H460 lung, 37.9 µM.

As to `c1ccc(N=C(N2CCCC2)N(CCN2CCCC2)c2ccccc2)cc1`, the TGI is 75.4 µM with COLO 205 colon; over 100 µM in the assay on 786-0 renal; over 100 µM with SK-OV-3 ovarian; over 100 µM in the assay on RPMI-8226 leukemia; 84.5 µM in the assay with BT-549 breast; over 100 µM in the assay on U251 CNS. In the assay on NCI-H460 lung, this compound yielded a TGI of 75.8 µM.

On to `Cc1ccc(-c2c(C#N)c(-c3ccc(C)cc3)n(NS(=O)(=O)c3ccccc3)c(=O)c2C#N)cc1`, for which the total growth inhibition concentration (TGI) with COLO 205 colon is over 100 µM; with 786-0 renal, over 100 µM; in the assay with SK-OV-3 ovarian it was over 100 µM; with RPMI-8226 leukemia it was 38.8 µM; in the assay with BT-549 breast it was over 100 µM; in the assay on HCC-2998 colon, over 100 µM. Besides, the TGI in the assay on U251 CNS, in the assay on MDA-MB-231 breast, in the assay on RXF 393 renal and in the assay with NCI-H460 lung was over 100 µM each time.

As to `CCN(CC)Cc1ccc(C(=S)Nc2ccc(Cl)cc2)s1`, the TGI with COLO 205 colon amounted to 5.2 µM; with 786-0 renal, 26.4 µM; with SK-OV-3 ovarian it was 29.7 µM; in the assay on RPMI-8226 leukemia, 39.6 µM; in the assay with BT-549 breast, 19.7 µM; with HCC-2998 colon it was 26 µM. For the same compound, the TGI with U251 CNS was found to be 26.2 µM; in the assay on DU-145 prostate it was 29.7 µM; in the assay with NCI-H460 lung, 27.9 µM.

For the compound `O=C1c2cccc3c2C(=O)c2c(cccc21)OCCOCCOCCOCCO3`, the TGI with SK-OV-3 ovarian, with RPMI-8226 leukemia, in the assay on HCC-2998 colon, in the assay on U251 CNS, in the assay on RXF 393 renal and in the assay on NCI-H460 lung was over 100 µM throughout.

With `CC(C)Cc1ccc(C(C)C(=O)N2CCN(/C=C/c3ccccc3)CC2)cc1` (configuration not stated), the TGI with COLO 205 colon was determined as 29.5 µM; in the assay with SK-OV-3 ovarian it was 30.3 µM; with RPMI-8226 leukemia it was 25.6 µM; in the assay with HCC-2998 colon it was 31.8 µM; in the assay on U251 CNS, 25.5 µM; in the assay on RXF 393 renal it was 30.8 µM. The same compound displayed a TGI in the assay on NCI-H460 lung of 32.9 µM.

Take `COc1ccc(/C=C2\CCNC2=O)cc1`: the TGI in the assay with COLO 205 colon, in the assay with SK-OV-3 ovarian, in the assay on RPMI-8226 leukemia, in the assay on HCC-2998 colon, in the assay on U251 CNS and with NCI-H460 lung was over 100 µM each time.

On to `CO/N=C(\C(=O)OC(=NC1CCCCC1)NC1CCCCC1)c1csc(NC(c2ccccc2)(c2ccccc2)c2ccccc2)n1`, for which the TGI with COLO 205 colon, in the assay with 786-0 renal, in the assay with SK-OV-3 ovarian, in the assay on RPMI-8226 leukemia, in the assay on BT-549 breast and in the assay on HCC-2998 colon was over 10 µM in each case. In addition, the TGI with U251 CNS, in the assay on DU-145 prostate, with RXF 393 renal and in the assay on NCI-H460 lung was over 10 µM throughout.

As for `O=C1COc2cccnc2N1CCCCO`, the TGI in the assay with 786-0 renal, in the assay with SK-OV-3 ovarian, with RPMI-8226 leukemia, in the assay on BT-549 breast, in the assay on U251 CNS and with MDA-MB-231 breast was over 100 µM in each case. Besides, the TGI with DU-145 prostate, in the assay with RXF 393 renal and with NCI-H460 lung was over 100 µM throughout.

For `CO[C@@]12C[C@@H](C)C3=CCC(C)=C3CC1=C(C)C(=O)O2`, the TGI in the assay on COLO 205 colon, with 786-0 renal, with SK-OV-3 ovarian, with RPMI-8226 leukemia, in the assay on BT-549 breast and in the assay on HCC-2998 colon was over 100 µM each time. The TGI in the assay on U251 CNS, in the assay with MDA-MB-231 breast and in the assay on NCI-H460 lung was over 100 µM in each case.

As to `CCCC(=O)OCC1OC(n2ccc(N)nc2=O)C(OC(=O)CCC)C1OC(=O)CCC` (configuration not stated), the TGI with COLO 205 colon, in the assay with SK-OV-3 ovarian, in the assay with RPMI-8226 leukemia, in the assay on HCC-2998 colon, with U251 CNS and with RXF 393 renal was over 100 µM in each case. This compound showed a TGI in the assay on NCI-H460 lung of over 100 µM.

For the compound `CC1(C)[C@@H](Cn2ccc(=O)[nH]c2=O)CC[C@@]1(C)CO`, the TGI in the assay with COLO 205 colon, in the assay with 786-0 renal, in the assay on SK-OV-3 ovarian, in the assay with HCC-2998 colon, in the assay on U251 CNS and with MDA-MB-231 breast was over 100 µM throughout. The TGI in the assay with DU-145 prostate and in the assay with RXF 393 renal was over 100 µM in each case.

As for `COC[C@@H](N=CC(C)(C)C)C(C)C`, the TGI in the assay with COLO 205 colon, in the assay on 786-0 renal, in the assay on SK-OV-3 ovarian, in the assay on RPMI-8226 leukemia, with HCC-2998 colon and with U251 CNS was over 100 µM each time. Also, the TGI in the assay on MDA-MB-231 breast, in the assay on DU-145 prostate, in the assay with RXF 393 renal and in the assay with NCI-H460 lung was over 100 µM each time.

Consider `CC1(C)/C(=N\NC(N)=O)C2CCC1C2` (configuration not stated), for which the TGI in the assay on COLO 205 colon, in the assay on 786-0 renal, in the assay with SK-OV-3 ovarian, in the assay with RPMI-8226 leukemia, with BT-549 breast and in the assay on U251 CNS was over 100 µM each time. For the same compound, the TGI in the assay with DU-145 prostate and in the assay with NCI-H460 lung was over 100 µM in each case.

Take `COC(=O)C(CC(C)C)NC(=O)C(C)NC(=O)C(Cc1ccc(OCc2ccccc2)cc1)NC(=O)C(COCc1ccccc1)NC(=O)OC(C)(C)C` (configuration not stated) (Boc-S(Bn)Y(Bn)AL-OMe; configuration not given here): the TGI with COLO 205 colon, in the assay on 786-0 renal, with SK-OV-3 ovarian, in the assay on RPMI-8226 leukemia, with BT-549 breast and with U251 CNS was over 100 µM throughout. Further, the TGI with DU-145 prostate, in the assay on RXF 393 renal and in the assay on NCI-H460 lung was over 100 µM throughout.

As to `Cc1ccc(/C=N/Nc2cc(C)c3cccc(C)c3n2)s1`, the TGI in the assay with COLO 205 colon turned out to be 28.7 µM; in the assay on 786-0 renal it was 11 µM; in the assay with SK-OV-3 ovarian it was 33.5 µM; in the assay with RPMI-8226 leukemia it was 67.4 µM; in the assay on BT-549 breast, 20.8 µM; in the assay with HCC-2998 colon, 22.7 µM. Besides, the TGI is over 100 µM in the assay with U251 CNS, over 100 µM with DU-145 prostate and 32.8 µM with RXF 393 renal.

In the case of `[N-]=[N+]=Nc1c([N+](=O)[O-])c(=O)n(-c2ccccc2)c2ccccc12`, the TGI is 42.3 µM in the assay with COLO 205 colon; 43.4 µM in the assay with 786-0 renal; over 100 µM with SK-OV-3 ovarian; 56.2 µM in the assay on RPMI-8226 leukemia; over 100 µM in the assay with HCC-2998 colon; 49.3 µM in the assay on U251 CNS. The TGI in the assay with MDA-MB-231 breast is 59.2 µM; in the assay on DU-145 prostate, over 100 µM; in the assay on RXF 393 renal, 38.9 µM; with NCI-H460 lung, over 100 µM.

Consider `C=CCc1c(O)c2c(c3oc(=O)cc(C)c13)CC(C)O2` (configuration not stated), for which the TGI in the assay with SK-OV-3 ovarian, in the assay with RPMI-8226 leukemia, in the assay with HCC-2998 colon, in the assay with U251 CNS, in the assay on RXF 393 renal and in the assay on NCI-H460 lung was over 100 µM in each case.

Values taken from PubChem BioAssay (NCI).
